The assay addresses T1, rVDAC1-GFP2 / rVDAC1-Rluc in T-REx-293 cells (Rattus norvegicus, UniProt Q9Z2L0).
T1 construct: The rVDAC1 gene was cloned into BamHI and HindIII sites of the BRET2 plasmids (N2 variants); expressed in transfected cells; host or cells: T-REx-293 cells stably expressing hVDAC1-shRNA (T-REx-pS10)
The assay can be described thus: BRET2 assay of VDAC1 oligomerization induced by apoptosis inducers (Method A). Conditions: test compound 10 μM, 1 h pre-incubation; for BRET2, % of inhibition, As2O3: As2O3 60 μM (3 h); for BRET2, % of inhibition, STS: STS 1 μM (3 h); for BRET2, % of inhibition, Selenite: selenite 30 μM (3 h). The format is cell-based. The source says:
BRET2 screening may be carried out as described in the art ([…] et al., (2010) Oligomerization of the mitochondrial protein voltage-dependent anion channel is coupled to the induction of apoptosis. Mol Cell Biol 30, 5698-5709). Plasmids encoding the fusion proteins rat(r)VDAC1-GFP2 and rVDAC1-luc were constructed using the BRET2 plasmids (Perkin Elmer, Waltham, Mass.). The rVDAC1 gene was cloned into BamHI and HindIII sites of the BRET2 plasmids (N2 variants) and amplified using the forward primer [NT] and the reverse primer [NT]. […] The cells were transfected using calcium phosphate method. Transfections were carried out with 0.2 μg of a plasmid coding for rVDAC1-Rluc and with 0.8 μg of a plasmid coding for rVDAC1-GFP2. As a negative control, cells were transfected with plasmids encoding for rVDAC1-Rluc (0.2 μg DNA) and GFP2 (0.8 μg). In another control (control cells), cells were also transfected with a plasmid encoding for rVDAC1-luc (0.2 μg) and plasmid pcDNA4/TO (0.8 μg). The BRET2 signal represents the ratio of the GFP2 fluorescence, measured at its emission wavelength (510 nm), over the light intensity (luminescence) emitted at 395 nm. All measurements were performed using the Infinite 200 ELISA reader (Tecan). BRET2 signals were defined as GFP2/Rluc intensity ratio and calculated as follows: DNA encoding fusion proteins rVDAC1-Rluc (in which RLuc was connected to rVDAC1 at the C terminal position through a linker (GGGS)) and rVDAC1-GFP2 (in which the GFP2 was fused to the rVDAC1 C terminus) was cloned into BRET2 vectors. rVDAC1-GFP2 and rVDAC1-Rluc were expressed in T-REx-293 cells stably expressing shRNA-hVDAC1 and a low level of endogenous hVDAC1 (referred to as T-REx-pS10 cells) hVDAC1-shRNA, being specific to human VDAC1, allowed the expression of rVDAC1 and decreased the participation of endogenous hVDAC1 in oligomerization, thereby enhancing the BRET2 signal. rVDAC1-GFP2 and rVDAC1-Rluc expression levels were correlated with the amount of plasmids used. […] Following incubation, cells were harvested using trypsin, washed twice with PBS by centrifugation at 1000×g, 5 min, resuspended in 200 μl of PBS and divided between two wells of a 96-well clear-bottom plate (Grenier). […] The screening was conducted using BRET2 assay as described above. […] After treatment, the medium was removed and assayed for BRET2 signals as described above. Liquid handling was done with the Tecan (Männedorf, Switzerland) Freedom 150 Robotic & MCA Liquid Handling System, while luciferase luminescence and fluorescence readings were obtained a robot-integrated Tecan Infinite M1000 reader. Method A was used for screening of VDAC1 oligomerization inhibitors. […] Table 2 provides a summary of BRET2-based screen results of the anti-VDAC1 oligomerization activity of compounds from the NCI library. Results are presented as percent inhibition of the BRET2 signal induced by the indicated pro-apoptotic agent.
For orientation: Bioluminescence resonance energy transfer reports proximity on the nanometre scale.

The structures appear in SMILES notation.

T1 sequence (Q9Z2L0 with tags, fused parts or gaps limits assumed): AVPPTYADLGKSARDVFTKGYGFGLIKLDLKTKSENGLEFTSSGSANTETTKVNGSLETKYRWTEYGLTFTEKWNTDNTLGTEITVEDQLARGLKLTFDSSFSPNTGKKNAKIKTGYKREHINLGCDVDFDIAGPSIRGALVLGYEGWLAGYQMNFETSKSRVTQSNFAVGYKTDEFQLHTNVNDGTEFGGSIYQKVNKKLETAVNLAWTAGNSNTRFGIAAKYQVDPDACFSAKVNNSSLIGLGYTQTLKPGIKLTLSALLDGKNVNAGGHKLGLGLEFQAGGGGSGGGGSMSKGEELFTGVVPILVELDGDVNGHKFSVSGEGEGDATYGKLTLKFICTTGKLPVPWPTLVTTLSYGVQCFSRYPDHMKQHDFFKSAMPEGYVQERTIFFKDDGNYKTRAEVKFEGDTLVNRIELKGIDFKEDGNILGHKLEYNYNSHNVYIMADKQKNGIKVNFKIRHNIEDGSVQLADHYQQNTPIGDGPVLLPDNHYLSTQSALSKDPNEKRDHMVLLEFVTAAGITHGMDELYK

Consider `CC1=CC(=O)C(C(C)=Nc2ccccc2Cl)C(=O)O1` (stereo not drawn) [NSC 32892], for which the “BRET2, % of inhibition, As2O3” value amounted to 55.4%; the “BRET2, % of inhibition, STS” value stood at 0%; the “BRET2, % of inhibition, Selenite” value came out at 16.4%.
In the case of `O=c1c(-c2ccc(O)cc2)coc2cc(O)cc(O)c12` [NSC 36586], the “BRET2, % of inhibition, As2O3” value is recorded as 49%; the “BRET2, % of inhibition, STS” value stood at 0%; the “BRET2, % of inhibition, Selenite” value was 0%.
`CN1CCN(C(=O)Nc2ccc([N+](=O)[O-])cc2)CC1` [NSC 36815]: the “BRET2, % of inhibition, As2O3” value was determined as 67.7%; the “BRET2, % of inhibition, STS” value was determined as 34.5%; the “BRET2, % of inhibition, Selenite” value is recorded as 50%.
In the case of `NC(=O)c1ccc(Oc2ccc(C(N)=O)cc2)cc1` [NSC 39047], the “BRET2, % of inhibition, As2O3” value was determined as 70.2%; the “BRET2, % of inhibition, STS” value was 39.1%; the “BRET2, % of inhibition, Selenite” value is given as 54%.
Taken in the same sequence, the figures for `O=C(O)c1cccc2c1C(=O)c1cccc3snc-2c13` [NSC 39938] were 48.7%, 0% and 18.8%.
Taken in the same sequence, the figures for `O=C(O)c1cc2ccccc2cc1Nc1ccccc1` [NSC 40275] were 64.8%, 16.8% and 35.2%.
With `O=C(O)c1ccccc1C(=O)Nc1ccccc1[N+](=O)[O-]` [NSC 41066], the “BRET2, % of inhibition, As2O3” value turned out to be 48.8%; the “BRET2, % of inhibition, STS” value came out at 0%; the “BRET2, % of inhibition, Selenite” value came to 0%.
For the compound `CN1[C@@H]2CC[C@H]1CC(OC(c1ccccc1)c1ccccc1)C2.CS(=O)(=O)O` (stereo partly drawn) [NSC 42199], the “BRET2, % of inhibition, As2O3” value came out at 97%; the “BRET2, % of inhibition, STS” value is given as 31%; the “BRET2, % of inhibition, Selenite” value came out at 78.7%.
Taken in the same sequence, the figures for `O=P(O)(O)c1cc(-c2ccccc2)oc1-c1ccccc1` [NSC 43344] were 80.7%, 23.8% and 50.1%.
For `CC(C)OC(=O)Nc1ccc(-c2ccc(NC(=O)OC(C)C)cc2Cl)c(Cl)c1` [NSC 43678], the “BRET2, % of inhibition, As2O3” value was 95.1%; the “BRET2, % of inhibition, STS” value is 34.6%; the “BRET2, % of inhibition, Selenite” value was determined as 78.3%.
With `NCc1c(O)ccc2ccccc12` [NSC 48422], the “BRET2, % of inhibition, As2O3” value was determined as 0%; the “BRET2, % of inhibition, STS” value was 36.8%; the “BRET2, % of inhibition, Selenite” value is 38.6%.
The corresponding values for `O=C(Nc1ccc(C2=NCCN2)cc1)c1ccc(Cl)c(C(=O)Nc2ccc(C3=NCCN3)cc2)c1` [NSC 67436] are 78.1%, 14.8% and 65.7%.
Regarding `Nc1nc(N)c(C=Nc2ccc(Br)cc2)c(Nc2ccc(Br)cc2)n1` [NSC 103520], the “BRET2, % of inhibition, As2O3” value is 82.5%; the “BRET2, % of inhibition, STS” value stood at 22.7%; the “BRET2, % of inhibition, Selenite” value worked out at 74%.
With `CC#CC#Cc1cccc(=O)o1` [NSC 109292], the “BRET2, % of inhibition, As2O3” value was determined as 75.4%; the “BRET2, % of inhibition, STS” value worked out at 0%; the “BRET2, % of inhibition, Selenite” value is listed as 0%.
Turning to `O=C1CN2CCC1C/C2=C\c1ccnc2c(Cl)cccc12` (stereo not drawn) [NSC 132868], the “BRET2, % of inhibition, As2O3” value amounted to 55.5%; the “BRET2, % of inhibition, STS” value is 0%; the “BRET2, % of inhibition, Selenite” value was found to be 41.4%.
As to `Cc1ccc([N+](=O)[O-])cc1NC(=O)Nc1ccc(S(N)(=O)=O)cc1` [NSC 146554], the “BRET2, % of inhibition, As2O3” value is recorded as 100%; the “BRET2, % of inhibition, STS” value is listed as 0%; the “BRET2, % of inhibition, Selenite” value turned out to be 71.8%.
Consider `O=C(Nc1ccc(Nc2ccncc2)cc1)c1ccc(Nc2ccnc3ccc([N+](=O)[O-])cc23)cc1` [NSC 146771], for which the “BRET2, % of inhibition, As2O3” value is on record as 70.7%; the “BRET2, % of inhibition, STS” value amounted to 41.2%; the “BRET2, % of inhibition, Selenite” value came out at 68.1%.
The corresponding values for `O=C(O)c1cc2ccccc2c2cc(Br)ccc12` [NSC 151252] are 100%, 0% and 29.8%.
The corresponding values for `Clc1ccc(/C=C/c2nc(Cl)c(-c3ccc(Cl)cc3)c(Cl)n2)cc1` [NSC 154389] are 90.6%, 45.9% and 90.6%.
Taken in the same sequence, the figures for `Nc1ccc(C(=O)Oc2ccc([N+](=O)[O-])cc2)cc1` [NSC 163802] were 65.8%, 0% and 1.2%.
Turning to `CCCCC(=O)N1CCCC(C)C1` (stereo not drawn) [NSC 191029], the “BRET2, % of inhibition, As2O3” value came out at 86.5%; the “BRET2, % of inhibition, STS” value was found to be 0%; the “BRET2, % of inhibition, Selenite” value amounted to 36.4%.
The corresponding values for `O=C(Nc1cccc([N+](=O)[O-])c1)c1cccc(C(=O)Nc2cccc([N+](=O)[O-])c2)c1` [NSC 204232] are 90.3%, 0% and 32.5%.
The corresponding values for `O=C(/C=C/c1ccccc1)NC(=S)Nc1ncccn1` [NSC 205968] are 58.5%, 0% and 0%.
As to `CCOc1ccc(/C=C2\CCc3ccccc3C2=O)cc1` [NSC 252172], the “BRET2, % of inhibition, As2O3” value was determined as 83.1%; the “BRET2, % of inhibition, STS” value amounted to 44.1%; the “BRET2, % of inhibition, Selenite” value came to 50%.
Turning to `O=C(Oc1ccc(NC(=O)c2cc3c(cc2Br)OCO3)cc1)c1ccccc1` [NSC 268487], the “BRET2, % of inhibition, As2O3” value came out at 86.7%; the “BRET2, % of inhibition, STS” value was found to be 0%; the “BRET2, % of inhibition, Selenite” value is given as 69.4%.
The corresponding values for `Nc1cc2c3c(cccc3c1)C(=O)N(CCN1CCCC1)C2=O` [NSC 308849] are 99.5%, 0% and 0%.
Taken in the same sequence, the figures for `CCN(CC)Cc1cc2[nH]c3c4ccc(Cl)cc4ncc3c2cc1OC` [NSC 317605] were 46%, 0.3% and 52%.
Taken in the same sequence, the figures for `Cc1ccc(NC(=O)Nc2nc3ccccc3s2)cc1NC(=O)Nc1nc2ccccc2s1` [NSC 319990] were 96.2%, 22% and 43.2%.
As for `Clc1ccc(-c2nc(-c3cc4cc(Cl)ccc4o3)cs2)cc1` [NSC 321502], the “BRET2, % of inhibition, As2O3” value came to 67.3%; the “BRET2, % of inhibition, STS” value is recorded as 22.4%; the “BRET2, % of inhibition, Selenite” value turned out to be 46.5%.
Take `O=C(c1cccnc1)c1cc(-c2ccccn2)c(=O)n2ccccc12` [NSC 324623]: the “BRET2, % of inhibition, As2O3” value was determined as 78%; the “BRET2, % of inhibition, STS” value was 0%; the “BRET2, % of inhibition, Selenite” value is given as 16.3%.
Taken in the same sequence, the figures for `O=C(Nc1ccc(Cl)c([N+](=O)[O-])c1)Nc1nc2ccccc2s1` [NSC 329249] were 82.8%, 12.1% and 22.4%.
In the case of `Nc1nc(Nc2ccccc2)n[nH]1` [NSC 331208], the “BRET2, % of inhibition, As2O3” value is given as 86.4%; the “BRET2, % of inhibition, STS” value is listed as 0%; the “BRET2, % of inhibition, Selenite” value came to 28.3%.
Consider `O=C(Nc1ccccc1-c1ccccc1)C(=O)Nc1ccccc1-c1ccccc1` [NSC 338042], for which the “BRET2, % of inhibition, As2O3” value is on record as 44.7%; the “BRET2, % of inhibition, STS” value came out at 0%; the “BRET2, % of inhibition, Selenite” value is 80.2%.

The record behind these values is patent publication US10787423B2, “Piperazine and piperidine derivatives, their synthesis and use thereof in inhibiting VDAC oligomerization, apoptosis and mitochondria dysfunction” (THE NATIONAL INSTITUTE FOR BIOTECHNOLOGY IN THE NEGEV LTD., priority 2015, dated 2020).
